Results as given in US9279134B2, “Methods for isolating bacteria” (DEINOVE, priority 2009, dated 2016).

How the values were obtained:
[1] = tested on: Deinococcus radiopugnans strain DRH40; test: Soil sample suspension maintained in presence of bleocin, growth of colonies; type: cell-based; settings: 50 μg/ml bleocin
Protocol: (§1) Soil samples containing Deinococcus radiopugnans strain DRH40 were placed in suspension under conditions similar to that of example 2. In place of irradiation, the suspensions were maintained in the absence (control) or presence of 50 μg/ml or 100 μg/ml of bleocin.

[2] = tested on: indigenous microflora; test: as above; type: cell-based; settings: 50 μg/ml bleocin
Protocol: as §1

Substance: bleocin
- growing pink colonies (Deinococcus) [1]: pink colonies are present
- effect on indigenous microflora [2]: decreases drastically
